In patent US20230139445A1, “BACTERIAL CELLS WITH IMPROVED TOLERANCE TO DIACIDS” (priority 2016, published 2023):
Where two headings read alike, the source gives them in different places.

Key:
[1] = tested on: Escherichia coli K-12 MG1655; test: Growth of K-12 MG1655 in varying concentrations of fumaric, itaconic, malic and succinic acid, Growth Profiler; assay type: cell-based
Experimental: Five colonies from wild-type K-12 MG1655 and 10 individual colonies deriving from each population were inoculated into 300 μL M9+1% glucose in 96 well deepwell plates and incubated in a 300 rpm plate shaker at 37° C. The next day, cells were diluted 10× in M9+1% glucose and 30 μL was transferred into clear-bottomed 96 well half-deepwell plates (with rectangular wells) containing M9+1% glucose and M9+1% glucose+52.78 g/L glutaric acid or 55.56 g/L adipic acid, such that the final concentration of glutaric acid or adipic acid was 47.5 g/L or 50 g/L, respectively. In addition, cryogenic glycerol stocks of the overnight culture were saved in a 96 well plate format. Half deepwell plates were incubated at 37° C. with 225 rpm shaking in a Growth Profiler (Enzyscreen), with optical scans of the plates taken at 15 minute intervals. Green pixel values integrated over a 1 mm diameter circular area in each well were converted to OD600 values using a previously determined calibration between OD600 and green pixel values.
Additionally, each evolved isolate was tested for cross-tolerance toward other dicarboxylic acids of interest. […] All diacids tested were either the neutral sodium salts, or the free diacid was neutralized with sodium hydroxide to pH 7.0 for testing.

[2] = tested on: Escherichia coli K-12 MG1655 and evolved isolates; assay type: cell-based; details: 50 g/L succinic acid
Procedure, shortened: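 Wild-type MG1655 and evolved isolates, precultured overnight in M9 + 1% glucose at 37 °C, were diluted into M9 + 1% glucose. Growth at 37 °C, 225 rpm, scanned every 15 min; pixel values calibrated to OD600. Diacids tested as sodium salts or neutralized to pH 7.0.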

O=C(O)CCC(=O)O [succinic acid]
μ (mean) ([1]; growth rate of K-12 MG1655, 10 g/L diacid (sodium salt)): 0.665 h^1 | μ (mean) ([1]; growth rate of K-12 MG1655, 20 g/L diacid (sodium salt)): 0.610 h^1 | μ (mean) ([1]; growth rate of K-12 MG1655, 30 g/L diacid (sodium salt)): 0.496 h^1 | μ (mean) ([1]; growth rate of K-12 MG1655, 40 g/L diacid (sodium salt)): 0.345 h^1 | μ (mean) ([1]; growth rate of K-12 MG1655, 50 g/L diacid (sodium salt)): 0.179 h^1 | μ (mean) ([1]; growth rate of K-12 MG1655, 60 g/L diacid (sodium salt)): 0.127 h^1 | tlag (mean) ([1]; lag time of K-12 MG1655, 10 g/L diacid (sodium salt)): 5.4 h | tlag (mean) ([1]; lag time of K-12 MG1655, 20 g/L diacid (sodium salt)): 6.7 h | tlag (mean) ([1]; lag time of K-12 MG1655, 30 g/L diacid (sodium salt)): 8.9 h | tlag (mean) ([1]; lag time of K-12 MG1655, 40 g/L diacid (sodium salt)): 13.4 h | tlag (mean) ([1]; lag time of K-12 MG1655, 50 g/L diacid (sodium salt)): 22.4 h | tlag (mean) ([1]; lag time of K-12 MG1655, 60 g/L diacid (sodium salt)): 42.5 h | growth rate μ (mean) ([2]; strain ADIP1-1): 0.299 h⁻¹ | lag time tlag (mean) ([2]; strain ADIP1-1): 16.1 h | growth rate μ (mean) ([2]; strain ADIP1-9): 0.290 h⁻¹ | lag time tlag (mean) ([2]; strain ADIP1-9): 14.5 h | growth rate μ (mean) ([2]; strain ADIP2-5): 0.260 h⁻¹ | lag time tlag (mean) ([2]; strain ADIP2-5): 25.5 h | growth rate μ (mean) ([2]; strain ADIP2-6): 0.278 h⁻¹ | lag time tlag (mean) ([2]; strain ADIP2-6): 21.7 h | growth rate μ (mean) ([2]; strain ADIP2-10): 0.262 h⁻¹ | lag time tlag (mean) ([2]; strain ADIP2-10): 22.0 h | growth rate μ (mean) ([2]; strain ADIP3-2): 0.311 h⁻¹ | lag time tlag (mean) ([2]; strain ADIP3-2): 13.2 h | growth rate μ (mean) ([2]; strain ADIP3-4): 0.308 h⁻¹ | lag time tlag (mean) ([2]; strain ADIP3-4): 12.7 h | growth rate μ (mean) ([2]; strain ADIP3-8): 0.304 h⁻¹ | lag time tlag (mean) ([2]; strain ADIP3-8): 13.8 h | growth rate μ (mean) ([2]; strain ADIP4-1): 0.206 h⁻¹ | lag time tlag (mean) ([2]; strain ADIP4-1): 15.7 h | growth rate μ (mean) ([2]; strain ADIP4-8): 0.228 h⁻¹ | lag time tlag (mean) ([2]; strain ADIP4-8): 15.8 h | growth rate μ (mean) ([2]; strain ADIP5-2): 0.192 h⁻¹ | lag time tlag (mean) ([2]; strain ADIP5-2): 13.5 h | growth rate μ (mean) ([2]; strain ADIP5-6): 0.361 h⁻¹ | lag time tlag (mean) ([2]; strain ADIP5-6): 12.1 h | growth rate μ (mean) ([2]; strain ADIP6-3): 0.246 h⁻¹ | lag time tlag (mean) ([2]; strain ADIP6-3): 14.9 h | growth rate μ (mean) ([2]; strain ADIP6-9): 0.210 h⁻¹ | lag time tlag (mean) ([2]; strain ADIP6-9): 18.4 h | growth rate μ (mean) ([2]; strain ADIP6-10): 0.285 h⁻¹ | lag time tlag (mean) ([2]; strain ADIP6-10): 12.4 h | growth rate μ (mean) ([2]; strain ADIP7-2): 0.294 h⁻¹ | lag time tlag (mean) ([2]; strain ADIP7-2): 12.5 h | growth rate μ (mean) ([2]; strain ADIP7-5): 0.274 h⁻¹ | lag time tlag (mean) ([2]; strain ADIP7-5): 12.4 h | growth rate μ (mean) ([2]; strain ADIP8-3): 0.146 h⁻¹ | lag time tlag (mean) ([2]; strain ADIP8-3): 22.1 h | growth rate μ (mean) ([2]; strain ADIP8-7): 0.163 h⁻¹ | lag time tlag (mean) ([2]; strain ADIP8-7): 23.2 h | growth rate μ (mean) ([2]; strain ADIP8-10): 0.131 h⁻¹ | lag time tlag (mean) ([2]; strain ADIP8-10): 20.0 h | growth rate μ (mean) ([2]; strain GLUT1-3): 0.231 h⁻¹ | lag time tlag (mean) ([2]; strain GLUT1-3): 14.5 h | growth rate μ (mean) ([2]; strain GLUT1-9): 0.194 h⁻¹ | lag time tlag (mean) ([2]; strain GLUT1-9): 20.8 h | growth rate μ (mean) ([2]; strain GLUT1-10): 0.246 h⁻¹ | lag time tlag (mean) ([2]; strain GLUT1-10): 20.0 h | growth rate μ (mean) ([2]; strain GLUT2-1): 0.232 h⁻¹ | lag time tlag (mean) ([2]; strain GLUT2-1): 14.7 h | growth rate μ (mean) ([2]; strain GLUT2-9): 0.213 h⁻¹ | lag time tlag (mean) ([2]; strain GLUT2-9): 14.4 h | growth rate μ (mean) ([2]; strain GLUT2-10): 0.277 h⁻¹ | lag time tlag (mean) ([2]; strain GLUT2-10): 13.4 h | growth rate μ (mean) ([2]; strain GLUT3-5): 0.242 h⁻¹ | lag time tlag (mean) ([2]; strain GLUT3-5): 16.1 h | growth rate μ (mean) ([2]; strain GLUT3-7): 0.235 h⁻¹ | lag time tlag (mean) ([2]; strain GLUT3-7): 15.3 h | growth rate μ (mean) ([2]; strain GLUT3-9): 0.221 h⁻¹ | lag time tlag (mean) ([2]; strain GLUT3-9): 20.6 h | growth rate μ (mean) ([2]; strain GLUT4-1): 0.263 h⁻¹ | lag time tlag (mean) ([2]; strain GLUT4-1): 16.3 h | growth rate μ (mean) ([2]; strain GLUT4-4): 0.242 h⁻¹ | lag time tlag (mean) ([2]; strain GLUT4-4): 16.6 h | growth rate μ (mean) ([2]; strain GLUT4-10): 0.231 h⁻¹ | lag time tlag (mean) ([2]; strain GLUT4-10): 15.7 h | growth rate μ (mean) ([2]; strain GLUT5-4): 0.281 h⁻¹ | lag time tlag (mean) ([2]; strain GLUT5-4): 17.0 h | growth rate μ (mean) ([2]; strain GLUT5-5): 0.264 h⁻¹ | lag time tlag (mean) ([2]; strain GLUT5-5): 18.4 h | growth rate μ (mean) ([2]; strain GLUT5-9): 0.244 h⁻¹ | lag time tlag (mean) ([2]; strain GLUT5-9): 18.4 h | growth rate μ (mean) ([2]; strain GLUT6-4): 0.241 h⁻¹ | lag time tlag (mean) ([2]; strain GLUT6-4): 14.2 h | growth rate μ (mean) ([2]; strain GLUT6-5): 0.243 h⁻¹ | lag time tlag (mean) ([2]; strain GLUT6-5): 13.9 h | growth rate μ (mean) ([2]; strain GLUT6-10): 0.211 h⁻¹ | lag time tlag (mean) ([2]; strain GLUT6-10): 14.4 h | growth rate μ (mean) ([2]; strain GLUT7-2): 0.223 h⁻¹ | lag time tlag (mean) ([2]; strain GLUT7-2): 14.9 h | growth rate μ (mean) ([2]; strain GLUT7-6): 0.195 h⁻¹ | lag time tlag (mean) ([2]; strain GLUT7-6): 17.8 h | growth rate μ (mean) ([2]; strain GLUT7-7): 0.156 h⁻¹ | lag time tlag (mean) ([2]; strain GLUT7-7): 19.9 h | growth rate μ (mean) ([2]; strain GLUT8-5): 0.198 h⁻¹ | lag time tlag (mean) ([2]; strain GLUT8-5): 16.4 h | growth rate μ (mean) ([2]; strain GLUT8-6): 0.236 h⁻¹ | lag time tlag (mean) ([2]; strain GLUT8-6): 34.1 h | growth rate μ (mean) ([2]; strain GLUT8-9): 0.250 h⁻¹ | lag time tlag (mean) ([2]; strain GLUT8-9): 38.0 h | growth rate μ (mean) ([2]; strain MG1655 (Table 28)): 0.169 h⁻¹ | lag time tlag (mean) ([2]; strain MG1655 (Table 28)): 20.2 h | growth rate μ (mean) ([2]; strain MG1655 (Table 29)): 0.143 h⁻¹ | lag time tlag (mean) ([2]; strain MG1655 (Table 29)): 23.8 h
